Data reported in patent publication US20250339091A1, “HONEY BEE-DERIVED BIOACTIVE WOUND DRESSING WITH SUSTAINED ANTIMICROBIAL RELEASE” (priority 2025, published 2025).

Assay: fluorescent dye diffusion assays in simulated wound fluid
Assay type: physicochemical
Description: For example, in experiments using rhodamine B as a tracer molecule, diffusion coefficients within the patterned hydrogel matrix increased from 1.4×10^−7 cm^2/s at 35° C. to 3.6×10^−7 cm^2/s at 37.5° C., confirming the gating effect of the thermoresponsive architecture. The permeability enhancement facilitates more rapid passive diffusion of bioactive agents—such as hydrogen peroxide from raw honey or flavonoids from propolis extract—from the surrounding microcapsules into the wound site, even before active actuator-based release is triggered. This early-stage, temperature-coupled passive transport acts as a preemptive therapeutic buffer, delivering antimicrobials during acute inflammatory flares while reducing latency between pathogenic escalation and drug availability.

With `CCN(CC)c1ccc2c(-c3ccccc3C(=O)O)c3ccc(=[N+](CC)CC)cc-3oc2c1.[Cl-]` [rhodamine B] as the compound, how does the “diffusion coefficient within the patterned hydrogel matrix” value (at 35° C.) read?
The value was 1.4×10^−7 cm^2/s.

And the “diffusion coefficient within the patterned hydrogel matrix” value (at 37.5° C.)?
The value was 3.6×10^−7 cm^2/s.
